Source: patent US7999119B2, “Compounds having CRTH2 antagonist activity” (Oxagen Limited, priority 2006, dated 2011)
Values joined by “and” are separate entries in the source; they are usually repeats but may differ in a detail not shown here. Identical values can stand only once. Like-named read-outs stand apart in the source and are kept apart here.

Legend:
[1] = system: PGD2 induced eosinophil shape change; assay: Human whole blood eosinophil shape change assay; format: cell-based; details: Homo sapiens, Eosinophil
Protocol: Human Whole Blood Eosinophil Shape Change Assay
Compounds 1 to 3 were assayed for their effect on PGD2 induced eosinophil shape change and were compared with Comparator Compounds A to G.
Shape Change Assay in Whole Blood
Compounds (1 μl, 200× final concentration) were added directly to 200 μl whole blood, mixed well and incubated for 15 min, 37° C., 5% CO2. After this time, cell shape was fixed by addition of 300 μl Cytofix™ buffer (BD Biosciences), 15 min on ice. 10 ml RBC lysis buffer was added to the fixed cells, incubated 5 min, at room temperature and centrifuged, 300×g for 5 min. Supernatant (containing lysed red cells) was removed and the lysis step was repeated. Leukocytes were resuspended in 250 μl RPMI/10% FCS and shape change analysed by FACS. Eosinophils were gated out based on their autofluorescence and 2000 eosinophil events were counted per sample. Data were analysed in triplicate.

[2] = Pharmacokinetics following oral administration in the rat; format: in vivo
Protocol: Investigation of Pharmacokinetics of Compounds of General Formula (I) Following Oral Administration in the Rat
Rats were weighed on the day of dosing.
The test material was prepared as a 0.3 mg/mL suspension in 1% carboxy-methyl-cellulose (CMC).
Three groups of 3 rats were dosed as follows:
Doses were administered as a single oral dose using a gavage tube at a constant dose volume of 10 mL/kg.
At each sampling time point blood samples (approximately 0.3 mL) was taken from a catheter inserted into a lateral tail vein prior to the start of the experiment. The final blood sample (approximately 2 mL) from each animal was taken by cardiac puncture under isoflurane anaesthesia following which the animal was killed by exsanguination. Blood samples were taken into individual heparinised containers. Blood samples were collected at the following times post-dose:
Following collection, the blood samples were centrifuged (approximately 10,000×g, 2 min at 4° C.) and the plasma stored as one aliquot at approximately −20° C. pending analysis of drug concentrations by LC-MS/MS.
The plasma samples were analysed for test material concentrations at BioDynamics using an LC-MS/MS method developed at BioDynamics.

[3] = system: DK-PGD2-induced blood eosinophilia; assay: Inhibition of DK-PGD2-induced blood eosinophilia in rats; format: in vivo, rat; details: female rats, oral dosing 30 min before 10 μg DK-PGD2 intracardiac; ED50 from dose-response curve; the values are: ED50
Protocol: Evaluation of Compounds of General Formula (I) as Inhibitors of 13,14-dihydro-15-keto prostaglandin D2 (DK-PGD2)-Induced Blood Eosinophilia in Rats
The test compound was dissolved in DMSO and diluted with water to give a final dosing volume of 2 ml/kg.
Female rats (175-250 g; UH colony) were dosed orally with test compound (or vehicle).
30 min after dosing all animals were anaesthetised with isoflurane.
Following induction of anaesthesia, animals receive an intracardiac injection of 10 μg DK-PGD2 in 0.3 ml heparinised (10 U/ml) saline. Control animals received an injection of 0.3 ml heparinised saline.
60 min after the intracardiac injection, animals were injected with an overdose of pentobarbitone sodium and a blood sample was taken (into heparin) by cardiac puncture while the rat was anaesthetised but not dead.
An aliquot of blood (100 μl) was added to Turk's solution and the total leukocyte count determined with a haemocytometer.
A further aliquot of blood (500 μl) was mixed with an equal volume of 4% Dextran (mw 500,000) and the erythrocytes allowed to settle. A cytospin preparation was made from the resulting leukocyte rich fraction.
Cytospin preparations were fixed with methanol (5 min) and stained with May-Grunwald (5 min) and Giemsa (15 min) stains. Finally cytospins were washed in phosphate buffer (pH6.8) and air dried.
Differential leukocyte counts were obtained from the cytospin preparations.
Blood eosinophil numbers were determined from the total leukocyte count and the percentage eosinophils (differential count).
Because it was impractical to generate sufficient data in any given experiment, data were obtained over a number of replicate experiments. Data from these replicate experiments were pooled, to provide at least 5 animals in each group and a dose-response curve fitted following a significance test (Mann Whitney) to determine whether or not DK-PGD2 caused a significant increase in blood eosinophils (GraphPad, Prism). A difference between groups was taken to be significant when P<0.05. ED50 values were calculated from the dose-response curve.

[4] = rat, 3 mg/kg p.o, individual male animals, 3 mg/kg

IC50 ([1]; 10 nm PGD2-induced eosinophil shape change, human whole blood, read-out: Whole Blood IC50): 6 nM
IC50 ([1]; Table 12 summary of whole blood eosinophil shape change IC50, read-out: IC50 (μmol)): 6 nM
IC50 ([1]; whole blood eosinophil shape change IC50 converted to ng/mL, read-out: IC50): 2.7 ng/mL
concentration at 0.25 h ([2]; male, rat, plasma, po, 3 mg/kg, rat, 3 mg/kg oral, 0.25 h, individual male animals, read-out: Concentration in Blood): 836 ng/mL
concentration at 0.25 h ([2]; male, rat, plasma, po, 3 mg/kg, rat, 3 mg/kg oral, 0.25 h, mean, read-out: Concentration in Blood, Mean): 1100 ng/mL
concentration at 0.5 h ([2]; male, rat, plasma, po, 3 mg/kg, rat, 3 mg/kg oral, 0.5 h, individual male animals, read-out: Concentration in Blood): 2060 ng/mL
concentration at 0.5 h ([2]; male, rat, plasma, po, 3 mg/kg, rat, 3 mg/kg oral, 0.5 h, mean, read-out: Concentration in Blood, Mean): 2250 ng/mL
concentration at 1 h ([2]; male, rat, plasma, po, 3 mg/kg, rat, 3 mg/kg oral, 1 h, individual male animals, read-out: Concentration in Blood): 2490 ng/mL
concentration at 1 h ([2]; male, rat, plasma, po, 3 mg/kg, rat, 3 mg/kg oral, 1 h, mean, read-out: Concentration in Blood, Mean): 3140 ng/mL
concentration at 2 h ([2]; male, rat, plasma, po, 3 mg/kg, rat, 3 mg/kg oral, 2 h, individual male animals, read-out: Concentration in Blood): 4320 ng/mL
concentration at 2 h ([2]; male, rat, plasma, po, 3 mg/kg, rat, 3 mg/kg oral, 2 h, mean, read-out: Concentration in Blood, Mean): 4080 ng/mL
concentration at 4 h ([2]; male, rat, plasma, po, 3 mg/kg, rat, 3 mg/kg oral, 4 h, individual male animals, read-out: Concentration in Blood): 3130 ng/mL
concentration at 4 h ([2]; male, rat, plasma, po, 3 mg/kg, rat, 3 mg/kg oral, 4 h, mean, read-out: Concentration in Blood, Mean): 2400 ng/mL
concentration at 6 h ([2]; male, rat, plasma, po, 3 mg/kg, rat, 3 mg/kg oral, 6 h, individual male animals, read-out: Concentration in Blood): 1330 ng/mL
concentration at 6 h ([2]; male, rat, plasma, po, 3 mg/kg, rat, 3 mg/kg oral, 6 h, mean, read-out: Concentration in Blood, Mean): 1140 ng/mL
concentration at 8 h ([2]; male, rat, plasma, po, 3 mg/kg, rat, 3 mg/kg oral, 8 h, individual male animals, read-out: Concentration in Blood): 1160 ng/mL
concentration at 8 h ([2]; male, rat, plasma, po, 3 mg/kg, rat, 3 mg/kg oral, 8 h, mean, read-out: Concentration in Blood, Mean): 847 ng/mL
concentration at 12 h ([2]; male, rat, plasma, po, 3 mg/kg, rat, 3 mg/kg oral, 12 h, mean, read-out: Concentration in Blood, Mean): 277 ng/mL
concentration at 24 h ([2]; male, rat, plasma, po, 3 mg/kg, rat, 3 mg/kg oral, 24 h, mean, read-out: Concentration in Blood, Mean): 16.1 ng/mL
AUC(0-inf) ([2]; male, rat, plasma, po, 3 mg/kg, rat, 3 mg/kg p.o, individual male animals, read-out: AUCinf): 24400 ng·h/mL
Cmax ([2]; male, rat, plasma, po, 3 mg/kg, rat, 3 mg/kg p.o, individual male animals, read-out: Cmax): 4320 ng/mL
Tmax ([2]; male, rat, plasma, po, 3 mg/kg, rat, 3 mg/kg p.o, individual male animals, read-out: Tmax): 2 h
half-life ([2]; male, rat, plasma, po, 3 mg/kg, rat, 3 mg/kg p.o, individual male animals, read-out: T½ (converted)): 3.26 h
AUC(0-inf) ([2]; male, rat, plasma, po, 3 mg/kg, rat, 3 mg/kg p.o, mean, summary without unit (Table 12), read-out: AUCinf (mean)): 21100 ng·h/mL
Cmax ([2]; male, rat, plasma, po, 3 mg/kg, rat, 3 mg/kg p.o, mean, summary without unit (Table 12), read-out: Cmax (mean)): 4080 ng/mL
AUC(0-inf) ([2]; male, rat, plasma, po, 3 mg/kg, rat, 3 mg/kg p.o, mean, read-out: AUCinf, Mean): 21100 ng·h/mL
Cmax ([2]; male, rat, plasma, po, 3 mg/kg, rat, 3 mg/kg p.o, mean, read-out: Cmax, Mean): 4080 ng/mL
Tmax ([2]; male, rat, plasma, po, 3 mg/kg, rat, 3 mg/kg p.o, mean, read-out: Tmax, Mean): 2 h
half-life ([2]; male, rat, plasma, po, 3 mg/kg, rat, 3 mg/kg p.o, mean, read-out: T½, Mean (converted)): 2.8 h
Fold over IC50 at 12 h ([2]; mean blood concentration at 12 h (rat, 3 mg/kg p.o.) divided by whole blood IC50 in ng/ml): 102
Concentration in Blood ([2]; rat, 3 mg/kg oral, 0.25 h, individual male animals, 3 mg/kg): 1130.7 ng/mL and 1337.2 ng/mL
Concentration in Blood ([2]; rat, 3 mg/kg oral, 0.5 h, individual male animals, 3 mg/kg): 2205.2 ng/mL and 2487.5 ng/mL
Concentration in Blood ([2]; rat, 3 mg/kg oral, 1 h, individual male animals, 3 mg/kg): 3547.8 ng/mL and 3393.7 ng/mL
Concentration in Blood ([2]; rat, 3 mg/kg oral, 2 h, individual male animals, 3 mg/kg): 3685.1 ng/mL and 4221.0 ng/mL
Concentration in Blood ([2]; rat, 3 mg/kg oral, 4 h, individual male animals, 3 mg/kg): 2023.1 ng/mL and 2053.8 ng/mL
Concentration in Blood ([2]; rat, 3 mg/kg oral, 6 h, individual male animals, 3 mg/kg): 995.0 ng/mL and 1098.0 ng/mL
Concentration in Blood ([2]; rat, 3 mg/kg oral, 8 h, individual male animals, 3 mg/kg): 699.5 ng/mL and 678.5 ng/mL
Concentration in Blood ([2]; rat, 3 mg/kg oral, 24 h, individual male animals, 3 mg/kg): 38.2 ng/mL and 0.0 ng/mL and 10.1 ng/mL
AUCinf [2, 4]: 17738 ng·h/mL and 19110 ng·h/mL
Cmax [2, 4]: 3685 ng/mL and 4221 ng/mL
T½ [2, 4]: 2.26 h and 2.62 h
Structure (SMILES): Cc1c(Cc2ccccc2S(=O)(=O)c2ccc(F)cc2)c2cc(F)ccc2n1CC(=O)O [Compound 3, 2-(5-fluoro-3-(2-(4-fluorophenylsulfonyl)benzyl)-2-methyl-1H-indol-1-yl)acetic acid]
Concentration in Blood ([2]; rat, 3 mg/kg oral, 12 h, individual male animals, 3 mg/kg): 465.3 ng/mL and 163.3 ng/mL and 201.1 ng/mL
Potency in inhibition of DK-PGD2-induced blood eosinophilia [3]: 0.01 mg/kg
